In US11524078B2, “Water-soluble macromolecular derivative of Venetoclax” (Delta-Fly Pharma, Inc., priority 2020, dated 2022):
pIC50: −log10 of the molar value.

Key:
[1] = system: human acute myelocytic leukemia cell line MV4-11; assay: Cytotoxic effect, human acute myelocytic leukemia cell line MV4-11; assay type: cell-based; conditions: Opti-MEM reduced-serum medium used for compound of formula (I), read-out: IC50 (50% inhibition percentage)
Description: (§1) Concentration dependence of the cytotoxic effect of the compound of formula (I) and the compound of formula (II) was examined as described below.

[2] = system: human acute myelocytic leukemia cell line OCI-AML-2; assay: Mouse model of human acute myelocytic leukemia (OCI-AML-2), subcutaneous transplant; assay type: in vivo; conditions: OCI-AML-2 s.c. mice; (II) i.v. weekly x2 at 100-300 mg/kg; (I) oral daily two weeks 100 mg/kg
Description: The effects of the compounds on suppressing tumor growth were compared in mice groups by using mice models which were generated by transplanting a human acute myelocytic leukemia cell line OCI-AML-2 subcutaneously into mice. The mice groups were the following: a control group; groups whose mice received the compound of formula (II) intravenously once every week for two weeks at a dose of 100 mg/kg, 200 mg/kg, or 300 mg/kg; and a group whose mice received the compound of formula (I) orally every day for two weeks at a dose of 100 mg/kg (see FIG. 5(1)).

[3] = system: human histiocytic lymphoma cell line U937; assay: Mouse model of human histiocytic lymphoma (U937), subcutaneous transplant; assay type: in vivo; conditions: U937 s.c. mice; (II) i.v. weekly x2 at 200 or 300 mg/kg; (I) oral daily two weeks 100 mg/kg
Description: The effects of the compounds on suppressing tumor growth were compared in three groups by using mice models which were generated by transplanting a human histiocytic lymphoma cell line U937 subcutaneously into mice. The three groups were the following: a control group; a group whose mice received the compound of formula (II) intravenously at a frequency of once a week for two weeks at a dose of 200 mg/kg or 300 mg/kg; and a group whose mice received the compound of formula (I) orally every day for two weeks at a dose of 100 mg/kg.

BAX = BAX expression in cytoplasm and mitochondrial fractions of MV4-11 cells; assay type: cell-based, human; conditions: (I) 0.1 and 1 μM, (II) 0.01, 0.1 and 1 μM, incubation five hours
Description: Human acute myelocytic leukemia cells MV4-11 were plated on a culture medium and cultured overnight. Then, the compound of formula (I) was added at concentrations of 0.1 μM and 1 μM, and the compound of formula (II) was added at concentrations of 0.01 μM, 0.1 μM, and 1 μM. After incubation for five hours, a cytoplasm fraction and a mitochondrial fraction were extracted and BAX expression was examined.

cytochrome C = assay: Cytochrome C release from mitochondria into cytoplasm in MV4-11 cells; assay type: cell-based, human; conditions: (I) 0.1 and 1 μM, (II) 0.01, 0.1 and 1 μM, incubation five hours
Description: In the above described Pharmaceutical Interview Form, “cytochrome C” that flowed out from mitochondria into cytoplasm is described as “pro-apoptotic protein.” Therefore, human acute myelocytic leukemia cells MV4-11 were plated on a culture medium and cultured overnight. Then, the compound of formula (I) was added at concentrations of 0.1 μM and 1 μM, and the compound of formula (II) was added at concentrations of 0.01 μM, 0.1 μM, and 1 μM. After incubation for five hours, a cytoplasm fraction and a mitochondrial fraction were extracted and cytochrome C release was examined.

caspase = assay: Caspase activity of MV4-11 cells; assay type: cell-based, human
Description: According to the above described Pharmaceutical Interview Form, cytochrome C that flowed out from mitochondria into cytoplasm activates caspase, thereby inducing apoptosis. Therefore, human acute myelocytic leukemia cells MV4-11 were plated on a culture medium and cultured overnight. Then, the compound of formula (I) was added at concentrations of 1 pM, 0.01 nM, 0.1 nM, 1 nM, 0.01 μM, 0.1 μM, and 1 μM; and the compound of formula (II) was added at concentrations of 1 pM, 0.01 nM, 0.1 nM, 1 nM, 0.01 μM, and 0.1 μM. After incubation for 24 hours, the culture medium was collected and caspase activity was examined by a conventional known technique.

[4] = Solubility in water of compounds; assay type: physicochemical; conditions: (I): 10 mg/mL in physiological saline containing 0.5% CMC, sonication, (II): 10 and 20 mg/mL in physiological saline at 40° C. to 50° C.
[5] = human protein; cited from earlier work
[6] = system: human lung cancer cell line A549; assay: Cytotoxic effect, human lung cancer cell line A549; conditions: A549, read-out: IC50 (50% inhibition percentage)
Description: as §1

[7] = system: human pancreatic cancer cell line PANC-1; assay: Cytotoxic effect, human pancreatic cancer cell line PANC-1; conditions: PANC-1, read-out: IC50 (50% inhibition percentage)
Description: as §1

CC1(C)CCC(CN2CCN(c3ccc(C(=O)NS(=O)(=O)c4ccc(NCC5CCOCC5)c([N+](=O)[O-])c4)c(Oc4cnc5[nH]ccc5c4)c3)CC2)=C(c2ccc(Cl)cc2)C1 [compound of formula (I), Venetoclax]
pIC50 [1]: 6.80
effect on suppressing weight change [2]: suppressed weight change
effect of suppressing tumor growth [3]: no effect of suppressing growth of U937
BAX in the cytoplasm fraction (BAX): concentration-dependent decrease of BAX in the cytoplasm fraction
amount of cytochrome C released from mitochondria into cytoplasm (cytochrome C): increased depending on the concentration
caspase activity, concentration dependence (caspase; 1 pM to 1 μM (I), 1 pM to 0.1 μM (II), incubation 24 hours): increased depending on the concentration
caspase activity at 0.1 μM, (I) versus (II) (caspase; concentration in terms of Venetoclax 0.1 μM, 24 hours): exactly the same caspase activity
state of preparation in aqueous vehicle [4]: uniform bright yellow opaque suspension
binding percentage to protein [5]: ≥ 99.9%
pIC50 [6]: 6.00
pIC50 [7]: 6.00
